# According to PubChem BioAssay (NCI):
# Where “and” joins values, the source holds several entries; their conditions need not be identical. Identical values can stand only once.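 48-hour exposure; five concentrations; linearly interpolated endpoints. Abbreviation: GI50, concentration required for 50% inhibition of growth. TGI: total growth inhibition.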
# System: CCRF-CEM leukemia
# Test: NCI anticancer screen, dose series, 48 h
Structure (SMILES),GI50 [µM],TGI [µM]
CC(=O)OC1Oc2ccccc2-c2oc(=O)c(-c3cc(=O)oc4cc(O)ccc34)cc21 (stereo not drawn),9.38,40.8
CC(C)(C)C(=O)OCOP(=O)(OCOC(=O)C(C)(C)C)C1CCCN(O)C1=O (stereo not drawn),0.185,2.3
CC(=O)O.CC(=O)O.CC(=O)O.CC(=O)O.CC(=O)O.CC(=O)O.O.[Ti].[Ti],> 100,> 100
COC(=O)C1=C(c2ccc3c(c2)OCO3)O[C@H](c2cc(OC)c(OC)c(OC)c2)[C@H]1COC(C)=O,–,> 100
Cc1ccc(Cl)cc1Nc1nc(C(F)(F)F)ccc1C(=O)N1CCN(c2ccc(F)cc2)CC1,15.1,53.5
COc1ccc(OC)c(NC(=O)C(=O)NNC(=O)c2sc(NNC(C)=O)nc2C)c1,–,45.2
CCCCc1c(OC)cc(O)c2c1C(=O)c1[nH]c(C(=O)O)c(O)c(=O)c1C2=O,–,> 100
O=C(Nc1ccc(OS(=O)(=O)c2ccccc2)cc1)C12CC3CC(CC(C3)C1)C2,3.73,> 100
O=[N+]([O-])c1nccn1CC(O)c1ccc(F)cc1 (stereo not drawn),–,> 100
COc1ccc(NC(=O)CCc2cc(-c3ccc(O)c(OC)c3)nc(NC#N)n2)cc1,–,> 100
COC(=O)c1cc2c3ccccc3n(C(C)=O)c2cn1,–,> 100
COCCOc1cc(F)c2c(Nc3ccc(NC(=O)Cn4cc(C(C)C)nn4)cc3)ncnc2c1,> 100,> 100
Cc1ccccc1N1C(=O)/C(=C/c2ccc(N(CCC#N)CCC#N)cc2)N=C1c1cc([N+](=O)[O-])ccc1Cl,–,> 100
CC(C)=C[C@@H]1C[C@H](C)[C@H]2CC[C@H](C)C3=C2[C@](O)(OC3=O)[C@]1(C)O,> 100,> 100

# System: UACC-62 melanoma
# Test: NCI anticancer screen, dose series, 48 h
Structure (SMILES),TGI,GI50
O=C(CCCn1ccnc1[N+](=O)[O-])NCCn1cncc1[N+](=O)[O-],> 100 µM,–
Cn1cc(C2=C(c3ccc4ccccc4c3)C(=O)NC2=O)c2ccccc21,> 25 µM,21.3 µM
C[As](C)SC1OC(CO)C(O)C1O (stereo not drawn),1.54 µM,0.385 µM
CNC(=S)N(C)C(=S)Nn1c(=O)c(C)nn(C)c1=S,> 100 µM,–
CCCCCCCCCC/C=C/CC(=O)SCCNC(=O)CCNC(=O)[C@@H](O)C(C)(C)COP(=O)(O)OP(=O)(O)OCC1OC(n2cnc3c(N)ncnc32)C(O)C1OP(=O)(O)O (stereo partly drawn),> 10 µM,–
Cn1c(=O)c2c(nc(Nc3cc(=O)[nH]c(=O)[nH]3)n2Cc2ccccc2)n(C)c1=O,> 100 µM,65.8 µM
COc1ccc2c(c1)CCC1C2CC[C@@]2(C)C1CC1=CC(COC(C)=O)C3C(=O)c4ccccc4C(=O)C3C12 (stereo partly drawn),> 100 µM,47.3 µM
O=C1CCCC/C(=C/c2ccccc2)N1,> 100 µM,–
CC/C(=C(/c1ccc(OCCN(C)C)cc1)c1ccc(OC(=O)CCCCC(=O)c2c(C)[nH]c(/C=C3\N=C(c4ccc[nH]4)C=C3OC)c2C)cc1)c1ccccc1,17.8 µM,4.94 µM
CC[C@]12C=CCN3CC[C@@]4(c5ccc(OC)cc5N(C)[C@H]4[C@@](O)(C(=O)OC)[C@@H]1OC(=O)CCC[P+](c1ccccc1)(c1ccccc1)c1ccccc1)[C@@H]32,0.964 µM and 1.42 µM,0.3 µM and 0.379 µM
CC(=O)OC1Oc2ccccc2-c2oc(=O)c(-c3cc(=O)oc4cc(O)ccc34)cc21 (stereo not drawn),39 µM,18.8 µM
CC(C)(C)C(=O)OCOP(=O)(OCOC(=O)C(C)(C)C)C1CCCN(O)C1=O (stereo not drawn),2.1 µM,0.318 µM
CC(=O)O.CC(=O)O.CC(=O)O.CC(=O)O.CC(=O)O.CC(=O)O.O.[Ti].[Ti],> 100 µM,> 100 µM
COC(=O)C1=C(c2ccc3c(c2)OCO3)O[C@H](c2cc(OC)c(OC)c(OC)c2)[C@H]1COC(C)=O,47.6 µM,–
Cc1ccc(Cl)cc1Nc1nc(C(F)(F)F)ccc1C(=O)N1CCN(c2ccc(F)cc2)CC1,24.1 µM,11.5 µM
COc1ccc(OC)c(NC(=O)C(=O)NNC(=O)c2sc(NNC(C)=O)nc2C)c1,81.5 µM,–
CCCCc1c(OC)cc(O)c2c1C(=O)c1[nH]c(C(=O)O)c(O)c(=O)c1C2=O,6.96 µM,–
O=C(Nc1ccc(OS(=O)(=O)c2ccccc2)cc1)C12CC3CC(CC(C3)C1)C2,> 100 µM,6.47 µM
O=[N+]([O-])c1nccn1CC(O)c1ccc(F)cc1 (stereo not drawn),> 100 µM,–
COc1ccc(NC(=O)CCc2cc(-c3ccc(O)c(OC)c3)nc(NC#N)n2)cc1,> 100 µM,–
COC(=O)c1cc2c3ccccc3n(C(C)=O)c2cn1,> 100 µM,–
COc1ccc(N(C)c2ncnc3occ(C)c23)cc1,> 100 µM,< 0.01 µM
COCCOc1cc(F)c2c(Nc3ccc(NC(=O)Cn4cc(C(C)C)nn4)cc3)ncnc2c1,> 100 µM,85.4 µM
O=C(c1ccccc1)c1cc(Cl)ccc1OCCCCN1CCN(CCCCOc2ccc(Cl)cc2C(=O)c2ccccc2)CC1,21.9 µM,9.87 µM
Clc1ccc2c(NCCCNc3nccc(Nc4ccc(Br)cc4)n3)ccnc2c1,3.56 µM,1.88 µM
Cc1ccccc1N1C(=O)/C(=C/c2ccc(N(CCC#N)CCC#N)cc2)N=C1c1cc([N+](=O)[O-])ccc1Cl,> 100 µM,–
CC(C)=C[C@@H]1C[C@H](C)[C@H]2CC[C@H](C)C3=C2[C@](O)(OC3=O)[C@]1(C)O,> 100 µM,99.8 µM
O=c1c2ccccc2[se]n1-c1cccnc1,37.1 µM,–

# System: SK-OV-3 ovarian
# Test: NCI anticancer screen, dose series, 48 h
Structure (SMILES),TGI,GI50
O=C(CCCn1ccnc1[N+](=O)[O-])NCCn1cncc1[N+](=O)[O-],> 100 µM,–
Cn1cc(C2=C(c3ccc4ccccc4c3)C(=O)NC2=O)c2ccccc21,> 25 µM,> 25 µM
C[As](C)SC1OC(CO)C(O)C1O (stereo not drawn),22.4 µM,6.42 µM
CCCCCCCCCC/C=C/CC(=O)SCCNC(=O)CCNC(=O)[C@@H](O)C(C)(C)COP(=O)(O)OP(=O)(O)OCC1OC(n2cnc3c(N)ncnc32)C(O)C1OP(=O)(O)O (stereo partly drawn),> 10 µM,–
Cn1c(=O)c2c(nc(Nc3cc(=O)[nH]c(=O)[nH]3)n2Cc2ccccc2)n(C)c1=O,> 100 µM,> 100 µM
COc1ccc2c(c1)CCC1C2CC[C@@]2(C)C1CC1=CC(COC(C)=O)C3C(=O)c4ccccc4C(=O)C3C12 (stereo partly drawn),> 100 µM,> 100 µM
O=C1CCCC/C(=C/c2ccccc2)N1,> 100 µM,–
O=C1CN=C(C[N+](=O)[O-])c2ccccc21,> 100 µM,–
CC/C(=C(/c1ccc(OCCN(C)C)cc1)c1ccc(OC(=O)CCCCC(=O)c2c(C)[nH]c(/C=C3\N=C(c4ccc[nH]4)C=C3OC)c2C)cc1)c1ccccc1,27 µM,14.1 µM
CC[C@]12C=CCN3CC[C@@]4(c5ccc(OC)cc5N(C)[C@H]4[C@@](O)(C(=O)OC)[C@@H]1OC(=O)CCC[P+](c1ccccc1)(c1ccccc1)c1ccccc1)[C@@H]32,3.8 µM and 2.46 µM,0.894 µM and 0.439 µM
CC(=O)OC1Oc2ccccc2-c2oc(=O)c(-c3cc(=O)oc4cc(O)ccc34)cc21 (stereo not drawn),87.6 µM,26.7 µM
CC(C)(C)C(=O)OCOP(=O)(OCOC(=O)C(C)(C)C)C1CCCN(O)C1=O (stereo not drawn),8.81 µM,0.508 µM
COC(=O)C1=C(c2ccc3c(c2)OCO3)O[C@H](c2cc(OC)c(OC)c(OC)c2)[C@H]1COC(C)=O,5.94 µM,–
Cc1ccc(Cl)cc1Nc1nc(C(F)(F)F)ccc1C(=O)N1CCN(c2ccc(F)cc2)CC1,36.1 µM,15.6 µM
COc1ccc(OC)c(NC(=O)C(=O)NNC(=O)c2sc(NNC(C)=O)nc2C)c1,> 100 µM,–
CCCCc1c(OC)cc(O)c2c1C(=O)c1[nH]c(C(=O)O)c(O)c(=O)c1C2=O,18.6 µM,–
O=C(Nc1ccc(OS(=O)(=O)c2ccccc2)cc1)C12CC3CC(CC(C3)C1)C2,> 100 µM,> 100 µM
O=[N+]([O-])c1nccn1CC(O)c1ccc(F)cc1 (stereo not drawn),> 100 µM,–
COc1ccc(NC(=O)CCc2cc(-c3ccc(O)c(OC)c3)nc(NC#N)n2)cc1,> 100 µM,–
COC(=O)c1cc2c3ccccc3n(C(C)=O)c2cn1,> 100 µM,–
COc1ccc(N(C)c2ncnc3occ(C)c23)cc1,> 100 µM,< 0.01 µM
O=C(c1ccccc1)c1cc(Cl)ccc1OCCCCN1CCN(CCCCOc2ccc(Cl)cc2C(=O)c2ccccc2)CC1,31.9 µM,17.1 µM
Clc1ccc2c(NCCCNc3nccc(Nc4ccc(Br)cc4)n3)ccnc2c1,2.91 µM,1.55 µM
Cc1ccccc1N1C(=O)/C(=C/c2ccc(N(CCC#N)CCC#N)cc2)N=C1c1cc([N+](=O)[O-])ccc1Cl,> 100 µM,–
CC(C)=C[C@@H]1C[C@H](C)[C@H]2CC[C@H](C)C3=C2[C@](O)(OC3=O)[C@]1(C)O,> 100 µM,> 100 µM
O=c1c2ccccc2[se]n1-c1cccnc1,> 100 µM,–

# System: HOP-92 NSCLC
# Test: NCI anticancer screen, dose series, 48 h
Structure (SMILES),TGI [µM],GI50 [µM]
O=C(CCCn1ccnc1[N+](=O)[O-])NCCn1cncc1[N+](=O)[O-],> 100,–
Cn1cc(C2=C(c3ccc4ccccc4c3)C(=O)NC2=O)c2ccccc21,> 25,> 25
